Data set [1] deals with MCF-7 (breast adenocarcinoma) cells. Description: growth inhibition of MCF-7 cells in culture. The class given is cell-based, human. As for the experimental part:
(§1) Human epithelial cancer cell lines were grown from frozen stocks originally obtained from the ATCC, in media commonly used for growing these cells in culture. For example, A549 cells (non-small cell lung adenocarcinoma) were cultured in Ham's F-12 medium, T84 cells (colon carcinoma) were cultured in a 1:1 mixture of F-12 and DMEM while MCF-7 (breast adenocarcinoma) and A427 (large cell lung carcinoma) cells were cultured in DMEM. The media were supplemented with 10% fetal bovine serum, penicillin (50 U/ml), streptomycin (50 micogram/ml) and fungizone (0.5 microgram/ml). OVCAR-3 cells (ovarian adenocarcinoma) were cultured in RPMI 1640 medium supplemented with 20% FBS and 10 microgram/ml insulin.
(§2) Cells were subcultured into 24-well plates and the cell number was monitored daily. When the cells were in log phase, the media was replaced with one containing the required drug concentration, and the cells were incubated for 72 h. The increase in cell numbers relative to control wells (without any drug) was determined after the incubation. Stock solutions of the drugs ([…]) were prepared in ethanol and stored at −20 deg. C. Etherlipid solutions (30 micromolar) in the appropriate media were prepared fresh on the day of the experiment and serially diluted to give the required concentrations. The final concentration of ethanol in all wells was 0.1% (v/v).
(§3) Gl50 values are given as the mean ± standard deviation; the Gl50 value from each experiment “n” was generated from three individual wells on two separate plates (six total wells); n=1 for compounds 3-6; n=2 for most cell lines treated with compound 2 ^an=3; ^bn=2; ^cn=6; ^dn=8.

In data set [2] the test system is A549 cells (non-small cell lung adenocarcinoma). Description: growth inhibition of A549 cells in culture. In kind it is cell-based, human. As for the experimental part:
as §1, §2, §3

Data set [3] relates to MCF-7/Adr (adriamycin-resistant) cells. Description: growth inhibition of MCF7/adr cells in culture. The class given is cell-based, human. The note with it: mean ± standard deviation, read-out: Gl50 (concentration of lipid required to inhibit the growth of fifty percent of the cells in culture). As for the experimental part: (§4) The Gl50 values for edelfosine (1), 2′-deoxy-β-D-arabinopyranosyl (2), 2′-deoxy-α-D-arabinopyranosyl (3), 2-O-methyl-β-D-glucopyranosyl (4), 2′-O-methyl-β-D-mannopyranosyl (5) and α-D-mannopyransoyl (6) on A-549, MCF-7, Lewis Lung, MCF-7/Adr (adriamycin-resistant), P388, P-388/Adr, L1210 and L1210/vmdr cells were determined and are set forth below (see Table 4) as the concentration (micromolar) of lipid required to inhibit the growth of fifty percent of the cells in culture.
as §3

The subject of a further data set is HT29 cells. The data set is described as follows: growth inhibition of HT29 cells in culture. The following applies: mean ± standard deviation, read-out: Gl50 (concentration of lipid required to inhibit the growth of fifty percent of the cells in culture). In kind it is cell-based.
The next data set has as its system L1210 cells. The data set is described as follows: growth inhibition of L1210 cells in culture. The note with it: mean ± standard deviation, read-out: Gl50 (concentration of lipid required to inhibit the growth of fifty percent of the cells in culture). The class given is cell-based. As for the experimental part:
as §4, §3

For another data set, the system named is L1210/vmdr cells. The data set is described as follows: growth inhibition of L1210/vmdr cells in culture. The class given is cell-based. The note with it: mean ± standard deviation, read-out: Gl50 (concentration of lipid required to inhibit the growth of fifty percent of the cells in culture). As for the experimental part:
as §4, §3

Data set [4] concerns OVCAR-3 cells (ovarian adenocarcinoma). Description: growth inhibition of OVCAR-3 cells in culture. The note with it: for IC50: OVCAR-3 ovarian cancer cell line, read-out: Gl50 (the source's name); for growth: increase in cell numbers relative to control wells (control = 100): OVCAR-3, 72 h. The class given is cell-based, human. As for the experimental part: as §1, §2
Data set [5] concerns T84 cells (colon carcinoma). Description: growth inhibition of T84 cells in culture. The note with it: for IC50 / proliferation: increase in cell numbers relative to control wells (control = 100): 72 h; for IC50: read-out: Gl50 (concentration that inhibited cell growth by 50% in comparison to control cultures). In kind it is cell-based, human. As for the experimental part: as §1, §2

Data set [6] has as its system A427 (large cell lung carcinoma) cells. The data set is described as follows: growth inhibition of A427 cells in culture. The class given is cell-based, human. The note with it: for IC50 / proliferation: increase in cell numbers relative to control wells (control = 100): 72 h; for IC50: read-out: Gl50 (concentration that inhibited cell growth by 50% in comparison to control cultures). As for the experimental part: as §1, §2

[7] abbreviates: MCF-7, 72 h, 10% FBS-supplemented medium, read-out: Gl50 (concentration that inhibited cell growth by 50% in comparison to control cultures).
Setting [8] is: MCF-7, lipid concentration 5 μM, 72 h.
Setting [9] is: MCF-7, lipid concentration 10 μM, 72 h.
[10] abbreviates: MCF-7, lipid concentration 15 μM, 72 h.
Where [11] appears, read: MCF-7, lipid concentration 20 μM, 72 h.
Where [12] appears, read: 72 h, 10% FBS-supplemented medium, read-out: Gl50 (concentration that inhibited cell growth by 50% in comparison to control cultures).
[13] abbreviates: lipid concentration 10 μM, 72 h.
Where [14] appears, read: lipid concentration 15 μM, 72 h.
The mark [15] stands for this setting: lipid concentration 20 μM, 72 h.

The record followed here is US6573246B1, “Modified ether glyceroglycolipids” (The Liposome Company, Inc., priority 1995, dated 2003).

SMILES strings stand for the structures. Read-outs that look alike come from different tables or passages of the source.

Take `CCCCCCCCCCCCCCCCOC[C@H](CO[C@H]1O[C@H](CO)[C@@H](O)[C@H](O)[C@@H]1O)OC` [compound 6, 1-O-Hexadecyl-2-O-methyl-3-O-(α-D-mannopyransoyl)-sn-glycerol]: the IC50 in data set [1] (MCF7, mean ± standard deviation, read-out: Gl50 (concentration of lipid required to inhibit the growth of fifty percent of the cells in culture)) came to 21.7 ± 0.57 µM; in data set [2] (mean ± standard deviation, read-out: Gl50 (concentration of lipid required to inhibit the growth of fifty percent of the cells in culture)) it was 18.1 ± 0.14 µM; in data set [3] it was 23.3 ± 0.71 µM; with HT29 cells it was 23.2 ± 0.85 µM; with L1210 cells it was 16.2 ± 0.99 µM; with L1210/vmdr cells, 18.9 µM.

In the case of `CCCCCCCCCCCCCCCCOP(=O)([O-])OCC[N+](C)(C)C` [D, hexadecylphosphocholine], the IC50 in [4] (Homo sapiens) is more than 30 µM. In addition, the “growth: increase in cell numbers relative to control wells (control = 100)” value in data set [4] (lipid concentration 5 μM) turned out to be 93.8 ± 16.5; in [4] (lipid concentration 10 μM) it was 90.3 ± 11.3; in data set [4] (lipid concentration 15 μM) it was 67.4 ± 14.5; in data set [4] (lipid concentration 20 μM), 62.3 ± 10.7; in [4] (lipid concentration 30 μM), 67.2 ± 12.5.

With `CCCCCCCCCCCCCCCCOC[C@H](CO[C@@H]1O[C@H](CO)[C@@H](O)[C@H](O)[C@H]1NC(C)=O)OC` [B, 1-O-hexadecyl-2-O-methyl-3-O-(2′-acetamido-2′-deoxy-β-D-glucopyranosyl)-sn-glycerol], the IC50 in data set [1] (setting [7]) was 17 µM; in [5] (10% FBS-supplemented medium) it was more than 30 µM; in data set [2] (setting [12]), 9 µM; in [6] (10% FBS-supplemented medium) it was 24.5 µM; in [4], 4 µM. Also, the “proliferation: increase in cell numbers relative to control wells (control = 100)” value is listed as 81 ± 8 in data set [1] (setting [8]); 71 ± 6 in [1] (setting [9]); 58 ± 5 in data set [1] (setting [10]); 38 ± 2 in data set [1] (setting [11]); 6 ± 3 in data set [1] (MCF-7, lipid concentration 30 μM, 72 h); 96 ± 10 in data set [5] (lipid concentration 5 μM). Besides, the “proliferation: increase in cell numbers relative to control wells (control = 100)” value stood at 79 ± 12 in data set [5] (lipid concentration 10 μM); 77 ± 13 in data set [5] (lipid concentration 15 μM); 79 ± 16 in data set [5] (lipid concentration 20 μM); 61 ± 13 in data set [5] (lipid concentration 30 μM); 91 ± 9 in data set [2] (lipid concentration 5 μM, 72 h); 45 ± 3 in [2] (setting [13]). For the same compound, the “proliferation: increase in cell numbers relative to control wells (control = 100)” value in data set [2] (setting [14]) worked out at 15 ± 2; in data set [2] (setting [15]) it was 0; in [2] (lipid concentration 30 μM, 72 h), 0; in data set [6] (lipid concentration 5 μM), 93 ± 12; in data set [6] (lipid concentration 10 μM), 92 ± 6; in [6] (lipid concentration 15 μM), 86 ± 10. The “proliferation: increase in cell numbers relative to control wells (control = 100)” value in data set [6] (lipid concentration 20 μM) is listed as 71 ± 8; in data set [6] (lipid concentration 30 μM), 24 ± 4. The “growth: increase in cell numbers relative to control wells (control = 100)” value in data set [4] (lipid concentration 5 μM) is given as 68.8 ± 5.8; in data set [4] (lipid concentration 10 μM) it was 52.9 ± 3.9; in [4] (lipid concentration 15 μM), 34.6 ± 7.3; in data set [4] (lipid concentration 20 μM), 26.0 ± 10.9; in data set [4] (lipid concentration 30 μM), 4.7 ± 4.8.

As to `CCCCCCCCCCCCCCCCOC[C@H](CO[C@@H]1O[C@H](CO)[C@@H](O)[C@H](O)[C@H]1N)OC` [A, 1-O-hexadecyl-2-O-methyl-3-O-(2′-amino-2′-deoxy-β-D-glucopyranosyl)-sn-glycerol], the “concentration cytotoxic to the cells” value in data set [1] (MCF-7, 10% FBS-supplemented medium) was determined as 16 µM; in data set [5] (10% FBS-supplemented medium), 20 µM; in data set [2] (10% FBS-supplemented medium) it was 10.5 µM; in [6] (10% FBS-supplemented medium), 10.5 µM. Further, the IC50 in data set [1] (setting [7]) stood at 6.5 µM; in [5] (10% FBS-supplemented medium) it was 12.2 µM; in data set [2] (setting [12]), 8.3 µM; in data set [6] (10% FBS-supplemented medium) it was 7 µM; in data set [4] it was 12 µM. Also, the “proliferation: increase in cell numbers relative to control wells (control = 100)” value was 60.60 ± 7.14 in [1] (setting [8]); 44.05 ± 11.70 in data set [1] (MCF-7, lipid concentration 6.5 μM, 72 h); 31.46 ± 5.56 in data set [1] (MCF-7, lipid concentration 8.0 μM, 72 h); 14.42 ± 8.39 in [1] (setting [9]); 3.90 ± 5.75 in [1] (MCF-7, lipid concentration 12.5 μM, 72 h); 0 in data set [1] (setting [10]). Besides, the “proliferation: increase in cell numbers relative to control wells (control = 100)” value is on record as 0 in [1] (setting [11]); 89.71 ± 12.72 in data set [5] (lipid concentration 5 μM); 75.16 ± 10.79 in data set [5] (lipid concentration 7.5 μM); 64.89 ± 11.56 in data set [5] (lipid concentration 10 μM); 39.59 ± 9.50 in [5] (lipid concentration 12.5 μM); 15.06 ± 7.23 in data set [5] (lipid concentration 15 μM). In addition, the “proliferation: increase in cell numbers relative to control wells (control = 100)” value in data set [5] (lipid concentration 20 μM) turned out to be 0; in data set [2] (lipid concentration 5 μM, 72 h) it was 82.28 ± 4.66; in data set [2] (lipid concentration 6.5 μM, 72 h) it was 67.39 ± 6.18; in data set [2] (lipid concentration 8.0 μM, 72 h), 45.17 ± 12.06; in [2] (setting [13]), 0; in [2] (lipid concentration 12.5 μM, 72 h), 0. Also, the “proliferation: increase in cell numbers relative to control wells (control = 100)” value in [2] (setting [14]) is 0; in data set [2] (setting [15]), 0; in [6] (lipid concentration 5 μM), 68.98 ± 9.25; in data set [6] (lipid concentration 6.5 μM), 49.74 ± 5.16; in data set [6] (lipid concentration 8.0 μM) it was 4.29 ± 5.16; in data set [6] (lipid concentration 10 μM), 0. Also, the “proliferation: increase in cell numbers relative to control wells (control = 100)” value in data set [6] (lipid concentration 12.5 μM), in data set [6] (lipid concentration 15 μM) and in data set [6] (lipid concentration 20 μM) was 0 throughout. Besides, the “growth: increase in cell numbers relative to control wells (control = 100)” value in data set [4] (lipid concentration 5 μM) was 42.9 ± 13.4; in [4] (lipid concentration 10 μM), 7.7 ± 2.3; in [4] (lipid concentration 15 μM) it was 0.

For the compound `CCCCCCCC/C=C\CCCCCCCCCCCCOP(=O)([O-])OCC[N+](C)(C)C` [E, erucylphosphocholine], the IC50 in data set [4] (Homo sapiens) was more than 30 µM. In addition, the “growth: increase in cell numbers relative to control wells (control = 100)” value came out at 104.0 ± 12.2 in [4] (lipid concentration 5 μM); 102.3 ± 16.1 in data set [4] (lipid concentration 10 μM); 98.6 ± 7.8 in data set [4] (lipid concentration 15 μM); 90.2 ± 6.6 in data set [4] (lipid concentration 20 μM); 60 ± 10.7 in data set [4] (lipid concentration 30 μM).
